Source: ChEMBL document CHEMBL5724558, “Image-based profiling of drug vulnerabilities in CRC organoids” (2024)
Where “and” joins values, the source holds several entries; their conditions need not be identical. Identical values can stand only once.

Columns and labels:
Format in all cases: functional, Homo sapiens
Design in all cases: dose or concentration left out as unconfirmed
Colon cancer organoid [1] = assay: (§1) Image-based profiling of donated chemical probes and chemogenomic kinase set in O06 CRC organoid. Image analysis is performed on the sum area metric, and the data were normalized to the DMSO control. After imaging the organoid viability is measured using the OneGloEX Luciferase Assay System. The normalized viability data and sum area are reported.
Colon cancer organoid [2] = assay: as §1, with “O09” for “O06”
Colon cancer organoid [3] = assay: as §1, with “O21” for “O06”

SMILES	Cell Viability (Colon cancer organoid [1]; Replication number 1)	Cell Viability (Colon cancer organoid [1]; Replication number 2)	Cell Viability (Colon cancer organoid [2]; Replication number 1)	Cell Viability (Colon cancer organoid [2]; Replication number 2)	Cell Viability (Colon cancer organoid [3]; Replication number 1)	Cell Viability (Colon cancer organoid [3]; Replication number 2)
Cc1c(NC(=O)c2ccc(C(C)(C)C)cc2)cccc1-c1cn(C)c(=O)c(Nc2ccc(C(=O)N3CCOCC3)cc2)n1	119.85% and 118.543%	84.412% and 97.7895%	87.7094% and 99.5999%	109.316% and 107.058%	86.5232% and 101.491%	97.7388% and 99.4222%
Cc1sc2c(c1C)C(c1ccc(Cl)cc1)=N[C@@H](CC(=O)OC(C)(C)C)c1nnc(C)n1-2	19.6589% and 56.2953%	20.5614% and 51.6198%	38.4274% and 33.3849%	47.2906% and 27.9949%	79.5251% and 85.2384%	67.4511% and 80.5489%
CCCc1cc(C)[nH]c(=O)c1CNC(=O)c1cc(-c2ccnc(N3CCN(C)CC3)c2)cc2c1cnn2C(C)C	109.583% and 102.443%	141.979% and 116.144%	138.622% and 115.688%	134.993% and 114.602%	85.4576% and 83.4749%	100.02% and 92.3628%
CC(C)NC(=O)N1CC[C@H](NC2=Nc3cc(F)ccc3N(CC(F)F)c3ccc(Cl)cc32)C1	76.3577% and 106.595%	67.4805% and 91.0899%	65.8757% and 85.8718%	77.8958% and 74.4882%	89.5308% and 79.3405%	112.883% and 89.5415%
Cc1c(C(=O)Nc2ccc(Oc3ccnc4[nH]cc(-c5ccccc5)c34)c(F)c2)c(=O)n(-c2ccc(F)cc2)n1C	83.9357% and 96.3695%	67.8056% and 89.2545%	202.234% and 105.47%	155.309% and 109.6%	102.708% and 102.021%	105.094% and 114.574%
CC(C)Oc1ccc(-c2c[nH]cc2CN(C)CCN)cc1	21.9267% and 37.2081%	18.5621% and 35.8471%	64.4727% and 62.1329%	85.7978% and 86.9496%	91.7863% and 65.8393%	93.2232% and 70.8831%
CNCCN1CCC(OCc2ccccc2)CC1	119.99% and 102.443%	115.41% and 100.611%	67.0161% and 91.8083%	91.8334% and 102.344%	118.771% and 101.11%	99.3774% and 100.418%
Cn1c(=O)[nH]c2cc(N3C(=O)c4cccc5c(CCCO)ccc(c45)C3=O)ccc21	78.0892% and 58.7114%	114.692% and 105.151%	172.196% and 101.777%	101.158% and 94.3617%	119.202% and 111.104%	123.504% and 100.955%
CN(C)[C@H]1CN(C2CCc3cccc(F)c32)C[C@@H]1c1ccc(N2CCN(S(C)(=O)=O)CC2)cc1 (stereo partly specified)	159.825% and 136.993%	128.982% and 128.571%	201.275% and 108.733%	175.885% and 109.186%	78.9326% and 94.0562%	85.3871% and 90.7518%
CC1(C)C(N)=Nc2cc(OCCCN3Cc4ccc(OCCc5cn(CC(=O)N6CCC(CCN7CCCC7)CC6)nn5)cc4C3)c(OCC3CC3)cc21	159.496% and 131.919%	138.652% and 115.905%	116.392% and 79.0572%	168.88% and 116.313%	89.3796% and 92.2926%	86.2982% and 98.2697%
CC1(C)C(N)=Nc2cc(OCCCCN3Cc4ccc(OCc5cn(CC(=O)N6CCC(CCN7CCCC7)CC6)nn5)cc4C3)c(OCC3CC3)cc21	120.738% and 74.8993%	69.8334% and 85.077%	129.867% and 99.2272%	184.968% and 121.159%	75.5552% and 109.928%	77.1471% and 105.251%
CN(C)C(=O)Cn1cc(-c2ccc(-c3cncc4ccccc34)cc2)cn1	73.9778% and 127.973%	75.2678% and 99.5373%	314.332% and 120.679%	170.131% and 105.821%	132.258% and 129.895%	113.21% and 111.119%
CN1CCN(Cc2cc(NC(=O)c3ccc4c(c3)CN(c3ccccc3)CC4)cc(C(F)(F)F)c2)CC1	104.972% and 109.917%	87.5694% and 92.1973%	73.1959% and 82.4072%	164.971% and 111.856%	111.963% and 96.9088%	113.098% and 109.943%
Cc1cn(-c2cc(NC(=O)c3ccc4c(c3)CN(c3cncnc3)C[C@@H]4C)cc(C(F)(F)F)c2)cn1	59.0694% and 78.9076%	95.3584% and 115.454%	138.868% and 108.886%	120.836% and 109.134%	90.5152% and 91.8083%	113.206% and 94.0752%
Cc1cccc(-c2cnc3occ(-c4ccc(C(=O)O)c(C5CCCC5)c4)c3c2)c1	91.6718% and 109.086%	100.62% and 106.871%	143.367% and 90.8211%	122.111% and 97.0079%	122.241% and 115.611%	124.793% and 91.2416%
O=C(NCCCN1CCOC1=O)c1cnc(NCc2cc(Br)ccc2Br)nc1NC1CCCC1	128.504% and 125.145%	109.486% and 115.731%	172.879% and 128.436%	143.806% and 111.114%	88.4413% and 90.6749%	101.16% and 88.408%
COc1ccccc1-c1cc(N2CCN(C(=O)OC(C)(C)C)CC2)c(N)nn1	179.264% and 129.02%	154.723% and 113.755%	86.2709% and 84.3895%	173.59% and 117.453%	94.3574% and 85.8263%	106.056% and 125.119%
O=C(O)c1ccc(-c2coc3ncc(-c4ccccc4)cc23)cc1Cl	151.185% and 107.979%	124.809% and 78.3539%	308.758% and 113.836%	206.023% and 93.0484%	190.076% and 113.91%	188.696% and 75.9402%
c1ccc(C2CCN(c3cnc4c(N5CCOCC5)nccn34)CC2)cc1	145.966% and 120.992%	117.4% and 104.103%	180.042% and 107.897%	162.986% and 102.452%	115.301% and 98.0422%	102.772% and 73.1066%
CN(C)C(=O)Cn1cc(-c2ccc(-c3nnc4ccccn34)cc2)cn1	116.057% and 113.952%	85.0591% and 113.728%	166.343% and 115.942%	81.4375% and 98.5321%	108.728% and 107.596%	93.8353% and 96.1497%
CN(C)C(=O)N1CC[C@H](NC2=Nc3cc(F)ccc3N(CC(F)F)c3ccc(Cl)cc32)C1	112.42% and 113.793%	60.2365% and 60.6343%	91.7013% and 91.0686%	138.489% and 113.836%	101.162% and 105.976%	96.6139% and 109.943%
CCn1c(-c2nc3cc(C(=O)N4CCCC(N)C4)ccc3n2C)cc2ccccc21.Cl (stereo unspecified)	210.545% and 138.685%	140.649% and 97.743%	117.35% and 104.328%	180.446% and 129.427%	104.488% and 105.813%	105.345% and 85.3819%
O=C(CNCc1cc2ccccc2[nH]1)N[C@H]1CC[C@@H](c2nc3ccccc3[nH]2)CC1	105.609% and 101.043%	76.5637% and 75.4756%	116.461% and 89.5122%	85.4342% and 106.091%	73.7634% and 95.331%	89.7869% and 102.483%
Cc1cc(CN)cc(C)c1-c1ncn(C)c1-c1ccnc2cc(F)ccc12.Cl	218.867% and 141.584%	205.957% and 111.843%	165.285% and 103.632%	176.587% and 123.725%	125.215% and 107.577%	113.008% and 89.6778%
COc1cc(OC)cc(-c2noc(N3CCN(C)C4(CCN(c5ccccc5)CC4)C3)n2)c1	202.541% and 143.275%	168.695% and 116.861%	101.833% and 98.7635%	122.499% and 95.7871%	113.13% and 104.05%	103.365% and 96.1217%
COc1cccc2c1C(=O)c1c(O)c3c(c(O)c1C2=O)CC(O)(C(=O)CO)CC3OC1CC(N)C(O)C(C)O1.Cl (stereo unspecified)	10.231% and 27.4494%	–	17.7261%	21.2234%	24.67% and 46.8716%	19.9524% and 41.0435%
CCCS(=O)(=O)c1cc(NC2CC2)nc(-c2ccc3c(ccn3C3CC(C)(C)NC(C)(C)C3)c2)n1	40.3908% and 48.3221%	87.7215% and 108.975%	103.467% and 88.0989%	115.748% and 108.331%	82.8925% and 103.462%	85.2127% and 87.5298%
